Source: PubChem BioAssay (NCI)
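Each compound was tested at five concentrations against cells in 96-well plates for 48 hours. GI50 = concentration required for 50% inhibition of growth. At the TGI there is no net growth.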

Assays:
Assay in all cases: inhibition of tumour cell growth, NCI panel, 48 h
[1] = tested on: COLO 205 colon
[2] = tested on: A498 renal
[3] = tested on: HOP-62 NSCLC
[4] = tested on: SF-295 CNS
[5] = tested on: LOX IMVI melanoma
[6] = tested on: IGROV1 ovarian
[7] = tested on: SNB-75 CNS
[8] = tested on: MALME-3M melanoma
[9] = tested on: MCF7 breast
[10] = tested on: SR leukemia

Structure (SMILES)	TGI [1] [µM]	TGI [2] [µM]	TGI [3] [µM]	TGI [4] [µM]	TGI [5] [µM]	TGI [6] [µM]	TGI [7] [µM]	GI50 [1] [nM]	GI50 [2] [µM]	GI50 [3] [µM]	GI50 [4] [µM]	GI50 [5] [µM]	GI50 [8] [µM]	TGI [8] [µM]	GI50 [6] [nM]	GI50 [7] [µM]	GI50 [9] [µM]	TGI [9] [µM]	TGI [10] [µM]
Cc1ccc(/C=C2\CCCCC2=O)cc1	> 100	> 100	> 100	> 100	> 100	> 100	> 100												
CN1C(=O)N(C)C2C1NC(=S)N2/N=C/C=C/c1ccccc1[N+](=O)[O-] (stereo not given)	6.77	7.26	> 100	> 100	> 100	> 100	> 100	1230	0.513	1.01	0.625	0.87	> 100	> 100	2480	0.319	0.409	> 100	
COC(=O)C1=C(C)NC(=S)NC1c1ccc(N(CCCl)CCCl)cc1Cl (stereo not given)	59.7	> 100	> 100	> 82.4	> 100	> 89.1	> 100		46.9					41.7				66.1	
CC(C)N1CC2CC(CN(C(=O)c3ccc(Cl)cc3)C2)C1	> 100	> 100	> 100	> 100	> 100	> 100	> 100							> 100					
CC(C)(C)NCC(O)c1ccccc1Cl (stereo not given)	> 100	> 100	> 100	> 100	> 100	> 100	> 100	> 100000	> 100	> 100	> 100	> 100	> 100	> 100	> 100000	> 100	> 100	> 100	
CCCCCCCCCC1CC(=O)OC2=C1C(=O)CCC2 (stereo not given)	> 100		> 100	> 100	> 100	> 100	> 100							> 100					> 100
COc1ccc(N=NC2=C(O)CCC2=O)cc1	> 100	> 100	> 100	> 100	> 100	> 100	> 100							> 100					
CCO/C=C\C12CCCC1NC(c1ccccc1)(c1ccccc1)O2 (stereo not given)		> 100	> 100	> 100		71.1	78.5							54.3					
Cc1[nH]nc(C(F)(F)F)c1Cc1sc2c(c1C(=O)N1C[C@](C)(O)CO1)c(=O)n(C)c(=O)n2C(C)C	> 100	> 100	> 100	> 100	> 100		> 100	> 100000	47.3	> 100	> 100	> 100	> 100	> 100		> 100	> 100	> 100	
OC1OCC(COc2cc(Cl)c(Cl)cc2Cl)OC1O (stereo not given)	> 100	> 100	> 100	> 100		> 100	> 100							> 100					
NC(=O)NNC/C(Cl)=C(\Cl)C(=O)O	> 100	> 100	> 100	> 100	> 100	> 100	> 100							> 100					
CC(NNC(=S)N1CCN(c2ccccn2)CC1)c1nccc2ccccc12 (stereo not given)	5.93	17.3	15.5	11.9	11.2	18.5	18.9							15.5				14.3	
CCCCCCCCCCCCCCNCC(OC)OC	28.3	35	31.8	34.1	33.5	32.3	26.9							35.3					
CC1C(c2ccccc2)N(C)C(c2ccccc2)C(C)C1(O)c1ccccc1 (stereo not given)	58.7	> 100	> 100	> 100	> 100	> 100	> 100							> 100					
CCN1CCN(C(=O)[C@]23CC[C@@H](C)[C@H](C)[C@@H]2C2=CC[C@@H]4[C@@]5(C)CCC(=O)C(C)(C)[C@@H]5CC[C@@]4(C)[C@]2(C)CC3)CC1	2.37	2.42	3.09	1.59	1.52	4.85	3.82	1020	0.927	1.38	0.82	0.821	0.807	1.51	1400	1.03	0.891	2.03	
COc1nn(C)cc1Nc1nccc(-c2c[nH]c3c(NC(=O)[C@@H](C)N4CCN(C)CC4)cccc23)n1		45.2	> 100	99.4	36.5	> 100	40.9		15.9	23.1	28	17.1	20.1	73.1	18900	16.2	31.7	> 100	
CC1(c2ccc(F)cc2)C2C(=O)NC(=O)C1C(=O)NC2=O (stereo not given)	> 100	> 100		> 100	> 100	> 100	> 100							> 100					
